Read-outs that look alike come from different tables or passages of the source. Each block holds one compound with its values, some of them ahead of it.
What was measured:
[1] = for T1 in the 1st min of hyperpolarization decay: 0-60 s; for T1 in the 2nd min of hyperpolarization decay: 65-120 s
From the text: The dissolution process is detailed in the results section. […] Unless otherwise stated, the dissolved hyperpolarized solution was directly injected to a screw cup 10 mm NMR tube in a 5.8T NMR spectrometer via a PTFE line of about 2.4 m length with 3 s of He(g) chase. This line was wrapped with a heating tape (MRC, Holon, Israel) that enabled control over the temperature of the dissolution medium arriving to the NMR tube directly or to a collection tube in the fringe field of the spectrometer. ^15N-Nuclear Magnetic Resonance (NMR) spectra were continuously recorded immediately at the start of the dissolution process. […] In the experiments in body fluids and in experiments in which the hyperpolarized solution was first cooled to temperatures below room temperature, the dissolution media was first collected in a conical tube placed in the spectrometer's fringe field, and then was injected by syringe via a PEEK line to the NMR tube that was placed in the magnet.
For heating this hyperpolarized solution prior to arrival to the NMR tube, the PTFE line leading the hyperpolarized solution out of the spin polarization device was wrapped with a heating tape connected to a temperature controller (MRC, Holon, Israel). In this way, hyperpolarized solutions at temperatures higher than 26° C. could be obtained. For cooling the hyperpolarized solution, the heating tape was not turned on and the dissolution medium was mixed with 0 to 4 mL of D2O at 2° C. in a collection tube placed in ice-water bath in the fringe field of the magnet, prior to injection.
(§1) ^15N-NMR spectroscopy was performed in a 5.8T NMR spectrometer (RS2D, Mundolsheim, France), using a 10 mm broad-band NMR probe. The chemical shift scale of the spectra presented herein was calibrated based on a separate measurement of a [^15N2]urea standard sample (4M in H2O:D2O 80:20), carried out prior to hyperpolarized ^15N acquisitions, calibrating the [^15N2]urea signal to −306 ppm (relative to nitromethane). For enhancement factor calculation, the spectra were collected with a high flip angle of […] and a repetition time of 2 s. For T1 calculation, the spectra were acquired with a low flip angle of […] and a longer repetition time of 5-10 s.
The temperature in the NMR tube was continuously monitored using an NMR compatible temperature probe (Osensa, Burnaby, BC, Canada).
Determination of the T1 of the hyperpolarized sites was performed by curve fitting of the signal decay to the following equation: S(t)=S0·e^−t/T^1·(cos θ)^t/TR, in which TR, the time between excitations, and θ, the nutation angle of excitation, are known. Curve fitting was performed using Matlab (Mathworks, Natick, Mass., USA).

[2] = tested on: breast tumor bearing mouse; settings: 50 mM solution injected
[3] = Procedure: For this reason it was important to determine also the potential conversion to hyperpolarized [^15N]nitrite in human saliva.
To test for the presence of [^15N]nitrite in this saline-saliva sample after the hyperpolarized state had decayed, the same sample was scanned at thermal equilibrium as well. The sample was scanned for 20 h, at room temperature.
(§2) In the next step, this solution was divided into 2 samples, in the following manner: 3 mL of this solution were combined with 0.75 mL of human saliva and the combined solution was scanned for 5 days. The rest of the solution (without human saliva) was kept outside the magnet at room temperature.

[4] = remark: listed apart in the source
Procedure: The small amounts of hyperpolarized solution were added to the blood sample at 0, 3, 6, 7.25, and 9.17 min from arrival of the solution to the collection tube.

[5] = remark: listed apart in the source
Procedure: as §1
The absolute enhancement factor was determined by comparing the maximal SNR of the magnitude signal multiplied by the linewidth at half-height obtained under hyperpolarized conditions to the intensity of the thermal equilibrium signal of the same sample (analyzed in the same way). The spectrum at thermal equilibrium was acquired with the same nutation angle under fully relaxed conditions. The same spectral acquisition parameters (spectral width, number of points, receiver gain) and processing parameters (apodization, zero-filling) were used in the analysis of both spectra and the thermal equilibrium signal was corrected for the number of scans.
in the same spectrometer used to record the hyperpolarized signal (5.8T), as described in the Methods section, and then projected to the expected enhancement factors at a common clinical scanner at 1.5T. Enhancement factors were calculated with reference to a spectrum of the same sample.

[6] = remark: listed apart in the source
Procedure: Then, 4.59 mL saline and 0.66 mL of D2O were added to this mixture. This solution was transferred to an NMR tube and scanned for 5 days. ^15N fully-relaxed spectra were recorded in blocks of about 4 h, whereas each block consisted of 720 averages with a 30 flip angle and a repetition time of 20 s.
as §2

[7] = previous results; cited from earlier work
[8] = rats; cited from earlier work
[9] = mice; cited from earlier work
[10] = dogs; up to 120 mg/kg daily i.v. for 28 days; cited from earlier work
[11] = Estimated ^15N T1 (FIG. 1); settings: same order of magnitude as [^15N,D9]choline, called a speculation
From the text: FIG. 1 ^15N T1s of selected molecules in water (H2O) and D2O measured at 5.8 T; (a) denotes Na^15NO3; (b) denotes solid-state polarization in D2O and dissolution in D2O.; (c) denotes solid-state polarization in D2O and dissolution in H2O.; In this case, during the decay in solution the nitrogen positions are fully protonated as confirmed by the respective split pattern of the signal (not shown); a, b, and c—determined experimentally; (d) denotes estimation.

SMILES: O=[15N+]([O-])[O-].[Na+] [[^15N]nitrate, sodium [^15N]nitrate]
- dependence of T1 on temperature ([1]; 34-50° C.): does not change
- increase of T1 in 2nd min versus 1st min ([1]; D2O): 43%
- T1 in the 1st min of hyperpolarization decay ([1]; D2O (n = 4)): 81 ± 20
- T1 in the 2nd min of hyperpolarization decay ([1]; D2O (n = 4)): 116 ± 7
- T1 in the 1st min of hyperpolarization decay ([1]; H2O (n = 2)): 99 ± 3
- T1 in the 2nd min of hyperpolarization decay ([1]; H2O (n = 2)): 99 ± 5
- mouse vascular system in ^15N MR image [2]: enhanced in the MR image
- tumor tissue in ^15N MR image [2]: enhanced in the MR image
- conversion rate of nitrate to nitrite [3]: about 3.8 mole per day per 0.75 mL of saliva
- signals in saline-saliva sample [3]: about equal signals of [^15N]nitrate and [^15N]nitrite
- T1 in the 1st min of hyperpolarization decay ([3]; Saline + saliva (n = 1), 0-60 s): 116
- T1 in the 1st min of hyperpolarization decay ([4]; Blood (n = 3), 0-60 s): 27 ± 0.4
- T1 in the 2nd min of hyperpolarization decay ([4]; Blood (n = 3), 65-120 s): 48 ± 1
- increase of T1 in 2nd min versus 1st min ([4]; blood): 78%
- T1 in blood ([4]; decay 1 of consecutive injections, error = 95% CI of fit): 29 ± 2 s
- T1 in blood ([4]; decay 2 of consecutive injections, error = 95% CI of fit): 30 ± 3 s
- T1 ([4]; saline/whole human blood mixture (4 mL + 10 mL), 25 mM, 32-36° C., error = 95% CI of fit): 29 ± 1 s
- T1 upon mixing with whole blood ([4]; three measurements in two different blood samples): 29 ± 1 s
- ^15N polarization ([5]; corresponds to enhancement factor 5,298): 1%
- enhancement factor extrapolated to clinical MRI field of 1.5T ([5]; extrapolated from 5,298 at 5.8 T): about 20,500
- maximal enhancement factor ([5]; first signal in solution, 5.8 T, 2.5 h polarization at 1.5-1.6 K): 5,298
- percent polarization of the ^15N ([5]; physiological saline, HP vs TE spectra FIG. 3C/3D, 30° nutation angle): 0.6%
- signals in saline solution ([6]; 22 mM with glucose 2.7 mM in saline, scanned 5 days, room temperature, FIG. 5A): Only the [^15N]nitrate signal appears in the spectrum
- conversion to [^15N]nitrite in saline without saliva ([6]; additional 5 days scan started after 14 days at room temperature, FIG. 5C): no conversion to [^15N]nitrite was observed
- stable in saline solution ([6]; room temperature): at least 19 days

SMILES: [2H]C([2H])([2H])[15N+](CCO)(C([2H])([2H])[2H])C([2H])([2H])[2H] [[^15N,D9]choline]
- ^15N T1 [7]: about 6 min

SMILES: C[N+](C)(C)CCOP(=O)([O-])OC[C@H](O)CO [GPC, glycerophosphocholine]
- safe dose for an intravenous injection [8]: 781 mg/kg
- safe dose for an intravenous injection [9]: 521 mg/kg
- effects of daily intravenous injection [10]: only mild and reversible mood changes and no mortality

- ^15N T1 (estimated) [11]: about 6 min
SMILES: [2H]C([2H])([2H])[15N+](CCOP(=O)([O-])OCC(O)CO)(C([2H])([2H])[2H])C([2H])([2H])[2H] (stereo not drawn) [[^15N,D9]GPC, [^15N,D9]glycerophosphocholine]
